Experimental data published in patent publication US20240116985A1, “STAPLED PEPTIDES AND METHODS THEREOF” (priority 2020, published 2024).

Experiment: CHI Log D procedure
Assay type: physicochemical

CHI Log D (pH 7.4)	chromatographic logD (pH 7.4, CHI Log D)	SMILES	also measured
1.343		CC(=O)N[C@@H](Cc1ccccc1)C(=O)N[C@@H](CC(=O)O)C(=O)N[C@@H](C)C(=O)N[C@]1(C)CCCCCCC=CCOC(=O)N2CC[C@@](C(=O)N[C@@H](Cc3ccccc3)C(=O)N[C@@H](Cc3c[nH]c4ccccc34)C(=O)N[C@@H](CCC(N)=O)C(N)=O)(C2)NC(=O)[C@H](C(C)C)NC(=O)[C@H](CC2CCCC2)NC(=O)[C@H](C)NC(=O)[C@H](C)NC(=O)[C@H](CC(=O)O)NC(=O)[C@H](CC(=O)O)NC1=O (single isomer, unassigned) [I-96, Ac-Phe-Asp-Ala-R8-Asp-Asp-Ala-Ala-CypA-Val-PyrS-Phe-Trp-Gln-NH2]	
		CC(=O)N[C@@H](Cc1ccccc1)C(=O)N[C@@H](CC(=O)O)C(=O)N[C@@H](C)C(=O)N[C@]1(C)CCCCCCC=CCOC(=O)N2CC[C@@](C(=O)N[C@@H](Cc3ccccc3)C(=O)N[C@@H](Cc3c[nH]c4ccccc34)C(=O)N[C@@H](CCC(N)=O)C(N)=O)(C2)NC(=O)[C@H](C(C)C)NC(=O)[C@H](Cc2ccccc2)NC(=O)[C@H](C)NC(=O)[C@H](C)NC(=O)[C@H](CCc2ccccc2)NC(=O)[C@H](CC(=O)O)NC1=O (single isomer, unassigned) [I-98, Ac-Phe-Asp-Ala-R8-Asp-hPhe-Ala-Ala-Phe-Val-PyrS-Phe-Trp-Gln-NH2]	chromatographic logD (pH 7.4): 2.08
		CC(=O)N[C@@H](Cc1ccccc1)C(=O)N[C@@H](CC(=O)O)C(=O)N[C@@H](C)C(=O)N[C@]1(C)CCCCCCC=CCOC(=O)N2CC[C@@](C(=O)N[C@@H](Cc3ccccc3)C(=O)N[C@@H](Cc3c[nH]c4ccccc34)C(=O)N[C@@H](CCC(N)=O)C(N)=O)(C2)NC(=O)[C@H](C(C)C)NC(=O)[C@H](Cc2ccccc2)NC(=O)[C@H](C)NC(=O)[C@H](C)NC(=O)[C@H](Cc2ccccc2)NC(=O)[C@H](CC(=O)O)NC1=O (single isomer, unassigned) [I-99, Ac-Phe-Asp-Ala-R8-Asp-Phe-Ala-Ala-Phe-Val-PyrS-Phe-Trp-Gln-NH2]	chromatographic logD (pH 7.4): 1.99
	1.33	COc1cccc(C[C@H](NC(=O)[C@]23CCN(C2)C(=O)OCC=CCCCCCC[C@@](C)(NC(=O)[C@H](C)NC(=O)[C@H](CC(=O)O)NC(=O)[C@H](Cc2ccccc2)NC(C)=O)C(=O)N[C@@H](CC(=O)O)C(=O)N[C@@H](CC(=O)O)C(=O)N[C@@H](C)C(=O)N[C@@H](C)C(=O)N[C@@H](Cc2ccccc2)C(=O)N[C@@H](C(C)C)C(=O)N3)C(=O)N[C@@H](Cc2c[nH]c3ccccc23)C(=O)N[C@@H](CCC(N)=O)C(N)=O)c1 (single isomer, unassigned) [I-101, Ac-Phe-Asp-Ala-R8-Asp-Asp-Ala-Ala-Phe-Val-PyrS-3OMeF-Trp-Gln-NH2]	
1.274		COc1cccc(C[C@H](NC(=O)[C@]23CCN(C2)C(=O)OCC=CCCCCCC[C@@](C)(NC(=O)[C@H](C)NC(=O)[C@H](CC(=O)O)NC(=O)[C@H](Cc2ccccc2)NC(C)=O)C(=O)N[C@@H](CC(=O)O)C(=O)N[C@@H](CC(=O)O)C(=O)N[C@@H](C)C(=O)N[C@@H](C)C(=O)N[C@@H](Cc2ccccc2)C(=O)N[C@@H](C(C)C)C(=O)N3)C(=O)N[C@@H](Cc2c[nH]c3ccccc23)C(=O)N[C@@H](CCC(N)=O)C(N)=O)c1 (single isomer, unassigned) [I-102, Ac-Phe-Asp-Ala-R8-Asp-Asp-Ala-Ala-Phe-Val-PyrS-3OMeF-Trp-Gln-NH2]	
	1.03	CC(=O)N[C@@H](Cc1ccccc1)C(=O)N[C@@H](CC(=O)O)C(=O)N[C@@H](C)C(=O)N[C@]1(C)CCCCCCC=CCOC(=O)N2CC[C@@](C(=O)N[C@@H](Cc3ccccc3C(N)=O)C(=O)N[C@@H](Cc3c[nH]c4ccccc34)C(=O)N[C@@H](CCC(N)=O)C(N)=O)(C2)NC(=O)[C@H](C(C)C)NC(=O)[C@H](Cc2ccccc2)NC(=O)[C@H](C)NC(=O)[C@H](C)NC(=O)[C@H](CC(=O)O)NC(=O)[C@H](CC(=O)O)NC1=O (single isomer, unassigned) [I-105, Ac-Phe-Asp-Ala-R8-Asp-Asp-Ala-Ala-Phe-Val-PyrS-2CBMF-Trp-Gln-NH2]	
1.038		CC(=O)N[C@@H](Cc1ccccc1)C(=O)N[C@@H](CC(=O)O)C(=O)N[C@@H](C)C(=O)N[C@]1(C)CCCCCCC=CCOC(=O)N2CC[C@@](C(=O)N[C@@H](Cc3ccccc3C(N)=O)C(=O)N[C@@H](Cc3c[nH]c4ccccc34)C(=O)N[C@@H](CCC(N)=O)C(N)=O)(C2)NC(=O)[C@H](C(C)C)NC(=O)[C@H](Cc2ccccc2)NC(=O)[C@H](C)NC(=O)[C@H](C)NC(=O)[C@H](CC(=O)O)NC(=O)[C@H](CC(=O)O)NC1=O (single isomer, unassigned) [I-106, Ac-Phe-Asp-Ala-R8-Asp-Asp-Ala-Ala-Phe-Val-PyrS-2CBMF-Trp-Gln-NH2]	
	1.15	CC(=O)N[C@@H](Cc1ccccc1)C(=O)N[C@@H](CC(=O)O)C(=O)N[C@@H](C)C(=O)N[C@]1(C)CCCCCCC=CCOC(=O)N2CC[C@@](C(=O)N[C@@H](Cc3ccccc3)C(=O)N[C@@H](Cc3c[nH]c4ccccc34)C(=O)N[C@@H](CCC(N)=O)C(N)=O)(C2)NC(=O)[C@H](C(C)C)NC(=O)[C@H](Cc2cccc(C(N)=O)c2)NC(=O)[C@H](C)NC(=O)[C@H](C)NC(=O)[C@H](CC(=O)O)NC(=O)[C@H](CC(=O)O)NC1=O (single isomer, unassigned) [I-108, Ac-Phe-Asp-Ala-R8-Asp-Asp-Ala-Ala-3CBMF-Val-PyrS-Phe-Trp-Gln-NH2]	
	1.4	CC(=O)N[C@@H](Cc1ccccc1)C(=O)N[C@@H](CC(=O)O)C(=O)N[C@@H](C)C(=O)N[C@]1(C)CCCCCCC=CCOC(=O)N2CC[C@@](C(=O)N[C@@H](Cc3ccccc3)C(=O)N[C@@H](Cc3c[nH]c4ccccc34)C(=O)N[C@@H](CCC(N)=O)C(N)=O)(C2)NC(=O)[C@H](C(C)C)NC(=O)[C@H](Cc2ccc3ccccc3c2)NC(=O)[C@H](C)NC(=O)[C@H](C)NC(=O)[C@H](CC(=O)O)NC(=O)[C@H](CC(=O)O)NC1=O (single isomer, unassigned) [I-112, Ac-Phe-Asp-Ala-R8-Asp-Asp-Ala-Ala-2NapA-Val-PyrS-Phe-Trp-Gln-NH2]	
	1.33	CC(=O)N[C@@H](Cc1ccccc1)C(=O)N[C@@H](CC(=O)O)C(=O)N[C@@H](C)C(=O)N[C@]1(C)CCCCCCC=CCOC(=O)N2CC[C@@](C(=O)N[C@@H](Cc3ccccc3)C(=O)N[C@@H](Cc3c[nH]c4ccccc34)C(=O)N[C@@H](CCC(N)=O)C(N)=O)(C2)NC(=O)[C@H](C(C)C)NC(=O)[C@H](CCc2ccccc2)NC(=O)[C@H](C)NC(=O)[C@H](C)NC(=O)[C@H](CC(=O)O)NC(=O)[C@H](CC(=O)O)NC1=O (single isomer, unassigned) [I-117, Ac-Phe-Asp-Ala-R8-Asp-Asp-Ala-Ala-hPhe-Val-PyrS-Phe-Trp-Gln-NH2]	
	0.84	CC(=O)N[C@@H](Cc1ccccc1)C(=O)N[C@@H](CC(=O)O)C(=O)N[C@@H](C)C(=O)N[C@]1(C)CCCCCCC=CCOC(=O)N2CC[C@@](C(=O)N[C@@H](CC(=O)O)C(=O)N[C@@H](Cc3c[nH]c4ccccc34)C(=O)N[C@@H](CCC(N)=O)C(N)=O)(C2)NC(=O)[C@H](C(C)C)NC(=O)[C@H](Cc2ccccc2)NC(=O)[C@H](C)NC(=O)[C@H](C)NC(=O)[C@H](CC(=O)O)NC(=O)[C@H](CC(=O)O)NC1=O (single isomer, unassigned) [I-122, Ac-Phe-Asp-Ala-R8-Asp-Asp-Ala-Ala-Phe-Val-PyrS-Asp-Trp-Gln-NH2]	
	1.81	CCCC[C@@H]1NC(=O)[C@H](CC(=O)O)NC(=O)C2(CCCC=CCCCCCC[C@@](C)(C(=O)N[C@@H](Cc3ccccc3)C(=O)N[C@@H](Cc3c[nH]c4ccccc34)C(=O)N[C@@H](CCC(N)=O)C(N)=O)NC(=O)[C@H](C(C)C)NC(=O)[C@H](Cc3ccccc3)NC(=O)[C@H](C)NC(=O)[C@H](C)NC1=O)CCCC=CC[C@]1(CCCN1C(C)=O)C(=O)N[C@@H](CC(=O)O)C(=O)N[C@@H](C)C(=O)N2 (single isomer, unassigned) [I-138, Ac-PL3-Asp-Ala-B5-Asp-nLeu-Ala-Ala-Phe-Val-S8-Phe-Trp-Gln-NH2]	
2.834		CCCC[C@@H]1NC(=O)[C@H](CC(=O)O)NC(=O)C2(CCCC=CCCCCCC[C@@](C)(C(=O)N[C@@H](Cc3ccccc3)C(=O)N[C@@H](Cc3c[nH]c4ccccc34)C(=O)N[C@@H](CCC(N)=O)C(N)=O)NC(=O)[C@H](C(C)C)NC(=O)[C@H](Cc3ccccc3)NC(=O)[C@H](C)NC(=O)[C@H](C)NC1=O)CCCC=CC[C@]1(CCCN1C(C)=O)C(=O)N[C@@H](CC(=O)O)C(=O)N[C@@H](C)C(=O)N2 (single isomer, unassigned) [I-139, Ac-PL3-Asp-Ala-B5-Asp-nLeu-Ala-Ala-Phe-Val-S8-Phe-Trp-Gln-NH2]	
	0.816	CC(=O)N[C@@H](Cc1ccccc1)C(=O)N[C@@H](CC(=O)O)C(=O)N[C@@H](C)C(=O)N[C@]1(C)CCCCCCC=CCOC(=O)N2CC[C@@](C(=O)N[C@@H](CCC(=O)O)C(=O)N[C@@H](Cc3c[nH]c4ccccc34)C(=O)N[C@@H](CCC(N)=O)C(N)=O)(C2)NC(=O)[C@H](C(C)C)NC(=O)[C@H](Cc2ccccc2)NC(=O)[C@H](C)NC(=O)[C@H](C)NC(=O)[C@H](CC(=O)O)NC(=O)[C@H](CC(=O)O)NC1=O (single isomer, unassigned) [I-161, Ac-Phe-Asp-Ala-R8-Asp-Asp-Ala-Ala-Phe-Val-PyrS-Glu-Trp-Gln-NH2]	
0.827		CC(=O)N[C@@H](Cc1ccccc1)C(=O)N[C@@H](CC(=O)O)C(=O)N[C@@H](C)C(=O)N[C@]1(C)CCCCCCC=CCOC(=O)N2CC[C@@](C(=O)N[C@@H](CCC(=O)O)C(=O)N[C@@H](Cc3c[nH]c4ccccc34)C(=O)N[C@@H](CCC(N)=O)C(N)=O)(C2)NC(=O)[C@H](C(C)C)NC(=O)[C@H](Cc2ccccc2)NC(=O)[C@H](C)NC(=O)[C@H](C)NC(=O)[C@H](CC(=O)O)NC(=O)[C@H](CC(=O)O)NC1=O (single isomer, unassigned) [I-162, Ac-Phe-Asp-Ala-R8-Asp-Asp-Ala-Ala-Phe-Val-PyrS-Glu-Trp-Gln-NH2]	
	2.87	CC(=O)N1CCC[C@]12CC=CCCCC1(CCCC=CCCCCCC[C@@](C)(C(=O)N[C@@H](Cc3ccccc3)C(=O)N[C@@H](Cc3c[nH]c4ccccc34)C(=O)N[C@@H](CCC(N)=O)C(N)=O)NC(=O)[C@H](C(C)C)NC(=O)[C@H](Cc3ccccc3)NC(=O)[C@H](C)NC(=O)[C@H](C)NC(=O)[C@@](C)(CC(C)C)NC(=O)[C@H](CC(=O)O)NC1=O)NC(=O)[C@H](C)NC(=O)[C@H](CC(=O)O)NC2=O (single isomer, unassigned) [I-215, Ac-PL3-Asp-Ala-B5-Asp-DaMeL-Ala-Ala-Phe-Val-S8-Phe-Trp-Gln-NH2]	
